Test results from US7319094B2, “Increased and sustained in vivo gene expression using a nucleic acid, histone and amphipathic compound composition” (Rhode Island Hospital, priority 2001, dated 2008).

Columns and labels:
[1] = tested on: PNET2 cells induced to express AD7c-NTP; test: Crystal violet viability assay; type: cell-based, human; conditions: 3 mM IPTG-induced AD7c-NTP; relative to un-induced FCS-stimulated and IPTG-induced NGF or PDGF stimulated cultures
Procedure: To examine the effects of different growth factors on AD7c-NTP expression (and over-expression), the cells were serum-starved for 16 hours, after which IPTG (1-5 mM) was added to the medium. Four hours later, the cells were stimulated with insulin (50 nM), IGF-1 (5 ng/ml), NGF ([…]), or platelet-derived growth factor (PDGF; 5 ng/ml) for 24-72 hours. The cells were analyzed for morphological changes, viability, AD7c-NTP immunoreactivity, and expression of pro-apoptosis genes, survival genes, and phospho-tau.
Viability was measured by a standard crystal violet assay. Crystal violet dye labels only viable cells. The assays were performed with cells seeded into 96-well plates at a density of 2×10^4 cells/well. The absorbances were measured using a Spectracount plate reader (Packard, Meriden, Conn.). The crystal violet absorbances increased linearly with cell density between 10^4 and 5×10^5 cells/well.
Cells were serum-starved for 24 hours. However, since several hours of IPTG stimulation were required to induce AD7c-NTP gene expression or CAT activity, IPTG (3 mM) was added to the cultures after 16 hours of serum-starvation, i.e. 8 hours prior to growth factor stimulation. […]
Increased cell loss associated with insulin-stimulation and AD7c-NTP over-expression Cell viability was quantified using the microculture Crystal violet assay with cells seeded into 96-well plates. […]

[2] = tested on: PY-PI3 kinase (total PI3 kinase); test: PI3 kinase activity in anti-phospho-tyrosine (PY) immunoprecipitates; type: cell-based, human; conditions: 24 or 48 hours of stimulation
Procedure: The cells were harvested in Triton lysis buffer supplemented with protease and phosphatase inhibitors. Total PI3K was immunoprecipitated from 500 μg protein in cell lysates using rabbit polyclonal antibodies to the p85 subunit of PI3K and Protein A sepharose. The immunoprecipitants were incubated for 5 minutes at room temperature with 10 μg of sonicated phosphatidylinositol in HEPES buffer (200 mM HEPES, 4 mM EGTA, 4 mM sodium phosphate, pH 7.0). Reactions were initiated by the addition of 5 μCi [α^32p] ATP, 15 mM MgCl2, 150 mM ATP, 1.5 mM Tris-HCl, pH 7.4, and 15 mM NaCl. After 10 minutes incubation at 30° C., the reactions were stopped by the addition of HCl to a final concentration of 1.2 N, followed by chloroform/methanol extraction. Phosphorylated lipids were analyzed by thin layer chromatography using gel plates pre-coated with 1% oxalate (Merck, White House Station, N.J.). PI3K activity was measured with a phosphorimager.
PI3 kinase is an important mediator of neuronal survival. The pro-survival effects of PI3K are mediated through activation of Akt (protein kinase B) and phosphorylation of Bad to render it inactivated. Inhibition of PI3 kinase activity is associated with PNET2 cell apoptosis. Therefore, experiments were carried out to determine if growth factor stimulated PI3 kinase activity was inhibited in insulin or IGF-1-stimulated cultures. Such inhibition has been observed following chronic ethanol exposure. Since insulin and IGF-1 can activate PI3 kinase through the insulin-receptor substrate-1 (IRS-1) or through IRS-1-independent pathways, both IRS1-associated PI3 kinase and total PI3 kinase activities were measured. These studies were conducted using insulin or PDGF stimulated cultures in which AD7c-NTP gene expression was induced by 3 mM IPTG stimulation. […] Levels of PI3 kinase activity were measured in anti-phospho-tyrosine (PY) immunoprecipitates. […] Similarly, PI3 kinase activity was readily detected in the PY immunoprecipitates prepared with cells stimulated with insulin or PDGF.

“insulin: Human insulin purchased from Novagen” was tested, and the “cell density (crystal violet)” value [1] was “significantly reduced cell densities” and the “PY-PI3 kinase activity, 24 or 48 hours” value [2] was “similar”.
